From patent publication EP0337600A2, “Benzoylurea derivative, process for producing the same, insecticide containing the same, reaction intermediate of the same and process for producing the intermediate” (priority 1988, dated 1989) come the findings set out here.

What all share (assay type): in vivo
The subject of series [1] is tobacco cutworm (Spodoptera litura). The series is described as follows: Mortality of tobacco cutworm larvae on sprayed cabbage (Test Example 2). To be noted: for mortality at 0.5 ppm: Spodoptera litura, 120 h; for Mortality (%): 0.5 ppm (diluted 200,000 times with water), 30 ml sprayed onto cabbage, 5 fourth-instar larvae, after 5 days, repeated three times. The procedure: The emulsifiable concentrate of each of the following present compounds and controls prepared according to Formulation Example 1 was diluted 200,000 times with water (corresponding to 0.5 ppm). And 30 ml of each aqueous dilute solution thus obtained were sprayed onto cabbage cultivated in a plastic cup on a turn table, which cabbage had been planted one month before. After air-drying, 5 fourth-instar larvae of tobacco cutworm (Spodoptera litura) were released thereon, and after 5 days, the dead and alive were counted for mortality. This test was repeated three times.

Series [2] has as its system common mosquito (Culex pipiens pallens). The series is described as follows: Inhibition of adult emergence of common mosquito larvae in aqueous dilute emulsion (Test Example 1). To be noted: 3.5 ppm (emulsifiable concentrate diluted 28,600 times with water), 20 last-instar larvae in 100 ml, bred until emergence, repeated twice. Here is the method:
The emulsifiable concentrate of each of the following present compounds prepared according to Formulation Example 1 was diluted 28,600 times with water (corresponding to 3.5 ppm). And 100 ml of each aqueous dilute emulsion thus obtained were charged in a 180-ml polyethylene cup. Then 20 last-instar larvae of common mosquito (Culex pipiens pallens) were released therein. The larvae were bred on baits until emergence to obtain percentage of inhibition of adult emergence. The test was repeated twice.

Series [3] deals with diamond-back moth (Plutella xylostella) (field-strain). The series is described as follows: Hatching of diamond-back moth eggs laid on dipped germinated Japanese radish (Test Example 3). The settings on record: 1.25 ppm (diluted 80,000 times with water); radish dipped 30 seconds before egg laying; hatching counted after 5 days; repeated twice; four grades. The procedure:
Two pieces of germinated Japanese radish which had been sowed 5 or 6 days before were dipped for 30 seconds in the aqueous dilute solution. After air-drying for about 1 hour, these germinated radish were put in a cage wherein a large number of adult diamond-back moth (Plutella xylostella) (field-strain) of an age of 1-3 days after the emergence were released, and they were allowed to lay eggs. When the number of eggs per germinated radish reached 100 to 150, the radish were taken out of the cage and each two pieces thereof were put in a polyethylene cup of 5.5 cm in diameter. After 5 days, the number of hatching was counted to obtain percentage of hatching. The test was repeated twice.

What is called mortality is the percentage killed. A lower mortality goes with a weak lethal effect. As usually defined, the inhibition is the change of the read-out against control, counted positive when it falls. With `O=C(NC(=O)c1c(F)cccc1F)Nc1ccc(OC(F)(F)C(F)(F)Br)cc1F` [(1)], in series [1], the mortality at 0.5 ppm amounted to 100%. In series [2], at 3.5 ppm the inhibition was 100%. Moreover, the Percentage of hatching result in series [3] is reported as “A (A: 0%)”.

Regarding `O=C(NC(=O)c1c(F)cccc1F)Nc1ccc(OC(F)(F)C(Cl)Cl)cc1F` [(2)], the mortality at 0.5 ppm in series [1] stood at 93%. Also, the inhibition at 3.5 ppm in series [2] came out at 100%. Moreover, in series [3], the Percentage of hatching entry is “A (A: 0%)”.

As for `O=C(NC(=O)c1ccccc1Cl)Nc1ccc(OC(F)(F)C(Cl)Cl)cc1F` [(3)], in series [1], the mortality at 0.5 ppm is 100%. Moreover, the inhibition at 3.5 ppm in series [2] was found to be 100%. For the same molecule, the Percentage of hatching result in series [3] is “A (A: 0%)”.

Regarding `O=C(NC(=O)c1c(F)cccc1F)Nc1ccc(OC(F)(F)C(Br)Br)cc1F` [(4)], the mortality at 0.5 ppm in series [1] was 100%. Further, the inhibition at 3.5 ppm in series [2] is 100%. In addition, in series [3], the Percentage of hatching entry is reported as “A (A: 0%)”.

On to `O=C(NC(=O)c1c(F)cccc1F)Nc1ccc(OC(F)(F)C(F)Cl)cc1F` (stereo not shown) [(5)], for which the mortality at 0.5 ppm in series [1] is 93%. Further, at 3.5 ppm the inhibition in series [2] was 100%. Besides, the Percentage of hatching result in series [3] is reported as “A (A: 0%)”.

For `O=C(NC(=O)c1ccccc1Cl)Nc1ccc(OC(F)(F)C(F)Cl)cc1F` (stereo not shown) [(6)], the mortality at 0.5 ppm in series [1] turned out to be 100%. Besides, in series [2], testing at 3.5 ppm gave an inhibition of 100%. The Percentage of hatching entry in series [3] is recorded as “A (A: 0%)”.

`O=C(NC(=O)c1c(F)cccc1F)Nc1ccc(OC(F)(F)C(F)C(F)(F)F)cc1F` (stereo not shown) [(7)] yielded a mortality at 0.5 ppm in series [1] of 100%. This molecule gave an inhibition at 3.5 ppm in series [2] of 100%. Besides, the Percentage of hatching entry in series [3] was “A (A: 0%)”.

On to `O=C(NC(=O)c1ccccc1Cl)Nc1ccc(OC(F)(F)C(F)C(F)(F)F)cc1F` (stereo not shown) [(8)], for which the mortality at 0.5 ppm in series [1] was found to be 100%. This molecule also came in with an inhibition at 3.5 ppm in series [2] of 100%. Also, the Percentage of hatching entry in series [3] was “A (A: 0%)”.

On to `O=C(NC(=O)c1c(F)cccc1F)Nc1ccc(OC(F)(F)C(F)OC(F)(F)C(F)(F)C(F)(F)F)cc1F` (stereo not shown) [(9)], for which, in series [1], the mortality at 0.5 ppm was 100%. This molecule gave an inhibition at 3.5 ppm in series [2] of 100%. For the same molecule, the Percentage of hatching entry in series [3] is on record as “A (A: 0%)”.

Molecule `O=C(NC(=O)c1ccccc1Cl)Nc1ccc(OC(F)(F)C(F)OC(F)(F)C(F)(F)C(F)(F)F)cc1F` (stereo not shown) [(10)] displayed a mortality at 0.5 ppm in series [1] of 100%. Further, the inhibition at 3.5 ppm in series [2] amounted to 100%. In addition, the Percentage of hatching entry in series [3] is “A (A: 0%)”.

`O=C(NC(=O)c1c(F)cccc1F)Nc1ccc(OC(F)(F)C(F)OC(F)(F)F)cc1F` (stereo not shown) [(11)] showed a mortality at 0.5 ppm in series [1] of 100%. For the same molecule, the inhibition at 3.5 ppm in series [2] amounted to 100%. Besides, the Percentage of hatching result in series [3] is recorded as “A (A: 0%)”.

Consider `O=C(NC(=O)c1ccccc1Cl)Nc1ccc(OC(F)(F)C(F)OC(F)(F)F)cc1F` (stereo not shown) [(12)], for which, in series [1], the mortality at 0.5 ppm turned out to be 100%. The inhibition at 3.5 ppm in series [2] is 100%. Also, the Percentage of hatching entry in series [3] is listed as “A (A: 0%)”.

Take `O=C(NC(=O)c1c(F)cccc1F)Nc1ccc(Cl)cc1` [(A), reference compound]: the “Mortality (%)” value in series [1] came out at 13%. The Percentage of hatching entry in series [3] was “D (D: 21% or more)”.

With `O=C(NC(=O)c1ccccc1Cl)Nc1ccc(OC(F)(F)F)cc1` [(B), reference compound], the “Mortality (%)” value in series [1] is 0%. In series [3], the Percentage of hatching result is given as “D (D: 21% or more)”.
